Our source for the inhibition and IC50 values is patent US20220402916A1, “SMALL MOLECULE INHIBITORS OF KRAS G12C MUTANT” (Merck Sharp & Dohme Corp., priority 2019, published 2022).

For one assay, the target named is T1, Biotinylated KRAS G12C protein (Homo sapiens, UniProt P01116, C118S/C51S/C80L/G12C).
T1 construct: 183 amino acids; biotin on K10
T1 sequence (P01116 with tags, fused parts or gaps isoform P01116-2 G12C/C51S/C80L/C118S): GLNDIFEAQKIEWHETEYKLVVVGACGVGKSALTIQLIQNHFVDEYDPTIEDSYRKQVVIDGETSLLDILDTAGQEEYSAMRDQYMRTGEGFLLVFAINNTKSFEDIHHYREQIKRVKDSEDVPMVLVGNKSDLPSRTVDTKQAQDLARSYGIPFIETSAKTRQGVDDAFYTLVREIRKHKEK
Briefly: SOS-catalyzed nucleotide exchange assay. Format: biochemical. As to conditions: 10,000 nM; 60 minutes of preincubation prior to addition of SOS. The procedure:
Compounds are added to this complex, and then after 60 minute incubation time the mixture is treated with recombinant SOS protein and unlabeled GTP. Small molecule inhibitors stabilize the Bodipy-GDP complex whereas the untreated protein rapidly exchanges Bodipy-GDP for unlabeled GTP resulting in reduced TR-FRET signal. […] This mixture is then further diluted to 90 nM in an assay buffer (20 mM HEPES, 150 mM sodium chloride, 10 mM magnesium chloride, and 0.005% Tween) containing 15 nM of Terbium-Streptavidin (Invitrogen, catalog #PV3577) and 900 nM of Bodipy-GDP and incubated at room temperature for six hours. […] Each test compound (10 mM stock in DMSO) is diluted in DMSO to make a 10-point, 3-fold dilution series in a 384-well low dead volume microplate (Labcyte, catalog #LP-0200). Once titrations are made, 10 nL of the diluted compounds is acoustically dispensed into a 384-well assay plate (Corning, catalog #3820) using an Echo 550 (Labcyte). […] Each well then receives 3 μL of 240 nM recombinant human SOS protein and 9 mM GTP (Sigma, G8877) in assay buffer and is incubated at room temperature for 60 minutes. The time-resolved fluorescence resonance energy transfer signal for the assay plate is measured on an Envision (PerkinElmer) plate reader: Excitation filter=340 nm; emission1=495 nm; emission2=520 nm; dichroic mirror=D400/D505; delay time=100 μs. The signal of each well is determined as the ratio of the emission at 520 nm to that at 495 nm. […] The apparent effect as a function of compound concentration is fit to a four parameter logistic equation.
As for `C=CC(=O)N1C[C@H](C)N(c2cc(C(=O)NCCN(C)C)nc3c2CCN(c2cccc4cccc(C)c24)C3)C[C@H]1C` [Compound 59, 4-((2S,5R)-4-acryloyl-2,5-dimethylpiperazin-1-yl)-N-(2-(dimethylamino)ethyl)-7-(8-methylnaphthalen-1-yl)-5,6,7,8-tetrahydro-1,7-naphthyridine-2-carboxamide], the inhibition at 10 µM is 38%.

`C=CC(=O)N1CCN(c2cc(C(=O)N[C@H]3COC[C@@H]3N3CCOCC3)nc3c2CCN(c2cccc4cccc(C)c24)C3)CC1` (racemic) [Compound 35, rac-4-(4-acryloylpiperazin-1-yl)-7-(8-methylnaphthalen-1-yl)-N-(trans-4-morpholinotetrahydrofuran-3-yl)-5,6,7,8-tetrahydro-1,7-naphthyridine-2-carboxamide] returned an inhibition at 10 µM of 39%.

`C=CC(=O)N1CCN(c2cc(C(=O)NC(CC(C)C)CN(C)C)nc3c2CCN(c2cccc4cccc(C)c24)C3)CC1` (racemic) [Compound 20, rac-4-(4-acryloylpiperazin-1-yl)-N-(1-(dimethylamino)-4-methylpentan-2-yl)-7-(8-methylnaphthalen-1-yl)-5,6,7,8-tetrahydro-1,7-naphthyridine-2-carboxamide] gave an inhibition at 10 µM of 30%. Same read-out and setting: as for `C=CC(=O)N1CCN(c2cc(C(=O)NCC3CN(C)CCO3)nc3c2CCN(c2cccc4cccc(C)c24)C3)CC1` (racemic) [Compound 55, rac-4-(4-acryloylpiperazin-1-yl)-N-((4-methylmorpholin-2-yl)methyl)-7-(8-methylnaphthalen-1-yl)-5,6,7,8-tetrahydro-1,7-naphthyridine-2-carboxamide], the figure is 31%.

Still in this assay, the particulars now being: apparent potency; preincubation time of 60 minutes prior to addition of SOS.
With `C=CC(=O)N1CCN(c2cc(C(=O)NCC3CCN(C)C3)nc3c2CCN(c2cccc4cccc(C)c24)C3)CC1` (racemic) [Compound 58, rac-4-(4-acryloylpiperazin-1-yl)-7-(8-methylnaphthalen-1-yl)-N-((1-methylpyrrolidin-3-yl)methyl)-5,6,7,8-tetrahydro-1,7-naphthyridine-2-carboxamide], the IC50 is 2480 nM. The same measure, in the same setting: the same measure for `C=CC(=O)N1CCN(c2cc(C(=O)N[C@@H]3C[C@@H]3N)nc3c2CCN(c2cccc4cccc(C)c24)C3)CC1` (racemic) [Compound 38, rac-4-(4-acryloylpiperazin-1-yl)-N-(cis-2-aminocyclopropyl)-7-(8-methylnaphthalen-1-yl)-5,6,7,8-tetrahydro-1,7-naphthyridine-2-carboxamide]: 4770 nM.

In the case of `C=CC(=O)N1CCN(c2cc(C(=O)N3CCC[C@H]3CN3CCCC3)nc3c2CCN(c2cccc4cccc(C)c24)C3)CC1` [Compound 41, (S)-1-(4-(7-(8-methylnaphthalen-1-yl)-2-(2-(pyrrolidin-1-ylmethyl)pyrrolidine-1-carbonyl)-5,6,7,8-tetrahydro-1,7-naphthyridin-4-yl)piperazin-1-yl)prop-2-en-1-one], the concentration for half-maximal inhibition (IC50) was 9590 nM. The same measure, in the same setting: the same measure for `C=CC(=O)N1CCN(c2cc(C(=O)N[C@@H](C)CN(C)C)nc3c2CCN(c2cccc4cccc(C)c24)C3)CC1` [Compound 14, (S)-4-(4-acryloylpiperazin-1-yl)-N-(1-(dimethylamino)propan-2-yl)-7-(8-methylnaphthalen-1-yl)-5,6,7,8-tetrahydro-1,7-naphthyridine-2-carboxamide]: 614 nM; for `C=CC(=O)N1CCN(c2cc(C(=O)N3CCCCC3CN3CCCC3)nc3c2CCN(c2cccc4cccc(C)c24)C3)CC1` (racemic) [Compound 46, rac-1-(4-(7-(8-methylnaphthalen-1-yl)-2-(2-(pyrrolidin-1-ylmethyl)piperidine-1-carbonyl)-5,6,7,8-tetrahydro-1,7-naphthyridin-4-yl)piperazin-1-yl)prop-2-en-1-one]: 8880 nM; for `C=CC(=O)N1CCN(c2cc(C(=O)N3CCCC3CN3CCCCC3)nc3c2CCN(c2cccc4cccc(C)c24)C3)CC1` (racemic) [Compound 44, rac-1-(4-(7-(8-methylnaphthalen-1-yl)-2-(2-(piperidin-1-ylmethyl)pyrrolidine-1-carbonyl)-5,6,7,8-tetrahydro-1,7-naphthyridin-4-yl)piperazin-1-yl)prop-2-en-1-one]: 7870 nM. The same measure, in the same setting: the same measure for `C=CC(=O)N1CCN(c2cc(C(=O)NC(C)CCN(C)C)nc3c2CCN(c2cccc4cccc(C)c24)C3)CC1` (racemic) [Compound 21, rac-4-(4-acryloylpiperazin-1-yl)-N-(4-(dimethylamino)butan-2-yl)-7-(8-methylnaphthalen-1-yl)-5,6,7,8-tetrahydro-1,7-naphthyridine-2-carboxamide]: 3180 nM; for `C=CC(=O)N1CCN(c2cc(C(=O)NC3CCN(C)CC3)nc3c2CCN(c2cccc4cccc(C)c24)C3)CC1` [Compound 54, 4-(4-acryloylpiperazin-1-yl)-7-(8-methylnaphthalen-1-yl)-N-(1-methylpiperidin-4-yl)-5,6,7,8-tetrahydro-1,7-naphthyridine-2-carboxamide]: 9150 nM; for `C=CC(=O)N1CCN(c2cc(C(=O)N3CCC[C@@H]3CN3CCCC3)nc3c2CCN(c2cccc4cccc(C)c24)C3)CC1` [Compound 42, (R)-1-(4-(7-(8-methylnaphthalen-1-yl)-2-(2-(pyrrolidin-1-ylmethyl)pyrrolidine-1-carbonyl)-5,6,7,8-tetrahydro-1,7-naphthyridin-4-yl)piperazin-1-yl)prop-2-en-1-one]: 3770 nM. The same measure, in the same setting: as for `C=CC(=O)N1CCN(c2cc(C(=O)NC(C)CN(CC)CC)nc3c2CCN(c2cccc4cccc(C)c24)C3)CC1` (racemic) [Compound 19, rac-4-(4-acryloylpiperazin-1-yl)-N-(1-(diethylamino)propan-2-yl)-7-(8-methylnaphthalen-1-yl)-5,6,7,8-tetrahydro-1,7-naphthyridine-2-carboxamide], the figure is 3740 nM; as for `C=CC(=O)N1CCN(c2cc(C(=O)NC3CCCC(N(C)C)C3)nc3c2CCN(c2cccc4cccc(C)c24)C3)CC1` (racemic) [Compound 40, rac-(cis,trans)-4-(4-acryloylpiperazin-1-yl)-N-(3-(dimethylamino)cyclohexyl)-7-(8-methylnaphthalen-1-yl)-5,6,7,8-tetrahydro-1,7-naphthyridine-2-carboxamide], 3540 nM; as for `C=CC(=O)N1CCN(c2cc(C(=O)N[C@@H]3CCN(C)C3)nc3c2CCN(c2cccc4cccc(C)c24)C3)CC1` [Compound 50, (R)-4-(4-acryloylpiperazin-1-yl)-7-(8-methylnaphthalen-1-yl)-N-(1-methylpyrrolidin-3-yl)-5,6,7,8-tetrahydro-1,7-naphthyridine-2-carboxamide], 3570 nM. With `C=CC(=O)N1CCN(c2cc(C(=O)N[C@H]3CC[C@@H]3N)nc3c2CCN(c2cccc4cccc(C)c24)C3)CC1` (racemic) [Compound 37, rac-4-(4-acryloylpiperazin-1-yl)-N-(trans-2-aminocyclobutyl)-7-(8-methylnaphthalen-1-yl)-5,6,7,8-tetrahydro-1,7-naphthyridine-2-carboxamide], the IC50 stood at 468 nM. The same measure, in the same setting: the same measure for `C=CC(=O)N1CCN(c2cc(C(=O)N[C@@H]3CCC[C@H]3N(C)C)nc3c2CCN(c2cccc4ccccc24)C3)CC1` (racemic) [Compound 7, rac-4-(4-acryloylpiperazin-1-yl)-N-(trans-2-(dimethylamino)cyclo-pentyl)-7-(naphthalen-1-yl)-5,6,7,8-tetrahydro-1,7-naphthyridine-2-carboxamide]: 1590 nM; for `C=CC(=O)N1CCN(c2cc(C(=O)NCCC3CCCN3C)nc3c2CCN(c2cccc4cccc(C)c24)C3)CC1` (racemic) [Compound 57, rac-4-(4-acryloylpiperazin-1-yl)-7-(8-methylnaphthalen-1-yl)-N-(2-(1-methylpyrrolidin-2-yl)ethyl)-5,6,7,8-tetrahydro-1,7-naphthyridine-2-carboxamide]: 3410 nM; for `C=CC(=O)N1CCN(c2cc(C(=O)NC3CCCN(C)C3)nc3c2CCN(c2cccc4cccc(C)c24)C3)CC1` (racemic) [Compound 52, rac-4-(4-acryloylpiperazin-1-yl)-7-(8-methylnaphthalen-1-yl)-N-(1-methylpiperidin-3-yl)-5,6,7,8-tetrahydro-1,7-naphthyridine-2-carboxamide]: 5500 nM. Same read-out and setting: as for `C=CC(=O)N1CCN(c2cc(C(=O)N[C@H]3COC[C@@H]3N(C)C)nc3c2CCN(c2cccc4cccc(C)c24)C3)CC1` (racemic) [Compound 32, rac-4-(4-acryloylpiperazin-1-yl)-N-(trans-4-(dimethylamino)tetrahydro-furan-3-yl)-7-(8-methylnaphthalen-1-yl)-5,6,7,8-tetrahydro-1,7-naphthyridine-2-carboxamide], the figure is 4470 nM; as for `C=CC(=O)N1CCN(c2cc(C(=O)NC(CN(C)C)C(C)C)nc3c2CCN(c2cccc4cccc(C)c24)C3)CC1` (racemic) [Compound 18, rac-4-(4-acryloylpiperazin-1-yl)-N-(1-(dimethylamino)-3-methylbutan-2-yl)-7-(8-methylnaphthalen-1-yl)-5,6,7,8-tetrahydro-1,7-naphthyridine-2-carboxamide], 145 nM.

As a reminder, the inhibition is how much of the control response was suppressed. As a reminder, the IC50 is the concentration that inhibits the measured activity by half.
